Test results as given in publication PMC7076710, “Synthesis, Identification, and Structure–Activity Relationship Analysis of GATA4 and NKX2-5 Protein–Protein Interaction Modulators” (Journal of Medicinal Chemistry, 2019).

Legend:
[1] = biological target: T1, GATA4–NKX2-5 transcriptional synergy (Mus musculus, UniProt P42582+Q08369); test: GATA4–NKX2-5 transcriptional synergy luciferase reporter assay (3xNKE reporter, COS-1 cells); type: cell-based; conditions: for activity at 3 µM / activity at 10 µM: COS-1; for Synergy (% of control) Mean ± SD: 10 μM, COS-1 cells, 24 h
T1 construct: expressed in transfected cells; host or cells: COS-1
T1 sequence (Q08369 whole entry): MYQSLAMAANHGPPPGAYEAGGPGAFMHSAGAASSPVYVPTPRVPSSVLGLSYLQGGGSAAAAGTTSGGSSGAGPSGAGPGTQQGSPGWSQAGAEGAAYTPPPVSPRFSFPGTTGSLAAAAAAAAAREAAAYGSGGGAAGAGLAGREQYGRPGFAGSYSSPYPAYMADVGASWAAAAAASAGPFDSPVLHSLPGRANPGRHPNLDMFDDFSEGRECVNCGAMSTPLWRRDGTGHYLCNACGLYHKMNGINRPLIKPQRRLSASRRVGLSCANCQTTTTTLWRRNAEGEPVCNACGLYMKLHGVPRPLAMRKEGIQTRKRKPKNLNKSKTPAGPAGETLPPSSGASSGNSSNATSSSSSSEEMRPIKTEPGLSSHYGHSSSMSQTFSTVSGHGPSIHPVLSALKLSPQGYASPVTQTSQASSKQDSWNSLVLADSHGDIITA
T1 sequence (P42582 whole entry): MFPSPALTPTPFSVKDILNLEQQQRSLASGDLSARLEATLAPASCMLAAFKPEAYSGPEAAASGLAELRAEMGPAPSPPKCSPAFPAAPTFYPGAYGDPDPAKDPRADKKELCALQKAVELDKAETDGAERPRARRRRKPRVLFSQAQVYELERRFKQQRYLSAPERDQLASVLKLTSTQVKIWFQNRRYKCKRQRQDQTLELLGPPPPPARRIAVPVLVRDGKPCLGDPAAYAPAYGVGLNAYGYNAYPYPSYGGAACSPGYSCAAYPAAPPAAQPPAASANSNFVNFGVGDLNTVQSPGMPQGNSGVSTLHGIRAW

[2] = test system: rat BNP promoter activity in neonatal rat ventricular myocytes; test: BNP promoter luciferase reporter in neonatal cardiomyocytes with or without endothelin-1; type: cell-based; conditions: neonatal cardiomyocytes, 24 h
Experimental: Five compounds (GATA4–NKX2-5 synergy inhibitors 1, 61, and 65; the synergy activator 2; and the NKX2-5 activity inhibitor 47c) were selected for studies in neonatal cardiomyocytes, which were treated with endothelin-1 (ET-1), a well-established hypertrophic agonist that activates the gene expression of both ANP and BNP (Figure 4). The myocytes were transfected with construct containing −534/+4 proximal region of rat BNP promoter with GATA4 and NKX2-5 binding sites in front of luciferase before exposure to compounds and ET-1, which was added 1 h after the compounds.
Figure 4 Effects of the compounds 1, 2, 47c, 61, and 65 on BNP gene activation in cardiomyocytes. Neonatal cardiomyocytes were transfected with rat BNP luciferase reporter for 24 h. The cells were exposed to compounds and 1 h later to endothelin-1 (ET-1) for 24 h. The results are expressed as +SD (n = 3 or 9 for DMSO groups). ***P < 0.001 vs DMSO; **P < 0.01 vs DMSO; *P < 0.05 vs DMSO (one-way ANOVA followed by Tukey’s HSD or Welch ANOVA followed by Games–Howell); ^###P < 0.001 vs DMSO, no stimulus (independent samples Student’s t test).
The plasmids expressing mouse GATA4 protein, pMT2-GATA4, and empty pMT2 were gifts from D. B. Wilson (Department of Pediatrics, St. Louis Children’s Hospital, St. Louis, MO).[44] The plasmids expressing mouse NKX2-5 protein, pMT2-NKX2-5, have been described earlier.[28] The luciferase reporter plasmid used in GATA4–NKX2-5 transcriptional synergy assay and NKX transcriptional assay, pGL3-3xHA, contains three high affinity binding sites for NKX2-5.[28] The luciferase reporter plasmid used in GATA transcriptional assay, NP-112, contains tandem GATA-sites and minimal promoter of rat brain natriuretic peptide (BNP) gene.[45] The pGL3-BNP luciferase reporter containing −534/+4 bp rat BNP proximal promoter described previously was used in hypertrophy assay.[46]
The neonatal rat ventricular myocytes were isolated from 2- to 3-day-old Wistar rats, as described earlier.[29],[32] Rat pups were acquired from the experimental animal facility of the University of Helsinki with an internal use license (KEK17-012). Animals were housed in standard conditions, and their handling and all procedures were carried out in accordance with University of Helsinki institutional guidelines, which conform to the National Research Council (U.S.) Guide for the Care and Use of Laboratory Animals.[47] The cells were seeded at 50 000 cells/well in Isoplate-96 microplates (PerkinElmer, Turku, Finland) and cultured for 18–20 h with Dulbecco’s modified Eagle medium (DMEM)/F12 culture medium containing 2.5 mM L-glutamine, supplemented with 100 IU/mL penicillin–streptomycin and 10% fetal bovine serum (all from Gibco, Thermo Scientific). Transfections were carried out for 24 h in serum free media (CSFM; DMEM/F12, 2.5 mg/mL bovine serum albumin, 1 μM insulin, 2.5 mM L-glutamine, 32 nM selenium, 2.8 mM sodium pyruvate, 5.64 μg/mL transferrin, 1 nM T3, and 100 IU/mL PS) by using 100 ng of pGL3-BNP luciferase plasmid per well in a 1:3 ratio of DNA/transfection reagent (Fugene 6, Promega). […] After 24 h, the luminescence was measured as above.
Results from cardiomyocyte experiments are expressed as mean + SD from at least three independent experiments. Data were analyzed using IBM SPSS Statistics 24 software. […] Significance between ET-1 and DMSO samples was analyzed with independent samples Student’s t test. […]

[3] = 3 µM, luciferase reporter activity, % of control
[4] = 3 µM, luciferase reporter activity relative to control
[5] = 10 µM, luciferase reporter activity relative to control

## CCN(CC)c1ccc(NC(=O)c2c(-c3ccccc3)noc2C)cc1 [Compound 1, N-[4-(Diethylamino)phenyl]-5-methyl-3-phenylisoxazole-4-carboxamide]
[1]; [3]
  activity at 3 µM: 73.7%

## Cc1onc(-c2ccccc2)c1C(=O)N(C1=NC(C)CS1)c1ccc(Cl)cc1 (stereo not drawn) [Compound 2]
[1]
  Synergy (% of control) Mean ± SD: 170 % of control
[1]; [3]
  activity at 3 µM: 130%
[1]; 10 µM, luciferase reporter activity, % of control
  activity at 10 µM: 166%
[2]
  effect on BNP promoter activity in cardiomyocytes (in words): increased BNP promoter activity

## Cc1onc(-c2ccccc2)c1COc1ccc(C(=O)OCCC#N)cc1 [Compound 35a, 2-Cyanoethyl 4-[(5-Methyl-3-phenylisoxazol-4-yl)methoxy]benzoate]
[1]; [4]
  activity at 3 µM: 27.5%

## CCN(CC)c1ccc(NC(=O)c2cnsc2)cc1 [Compound 47s]
[1]; [4]
  activity at 3 µM: 66.9%

## CCC(=O)N(Cc1ccc(N(CC)CC)cc1)c1c(-c2ccccc2)noc1C [Compound 58]
[1]; [5]
  activity at 10 µM: 22.3%

## COc1ccc(-c2cc(NC(=O)c3ccc(C(C)(C)C)cc3)n[nH]2)cc1 [Compound 72]
[1]
  effect on GATA4–NKX2-5 transcriptional synergy (in words): inhibition potency
[1]; [4]
  activity at 3 µM: 66%
[1]; [5]
  activity at 10 µM: 49.5%

## N-[4-(Diethylamino)phenyl]-3-methyl-5-(4-methyl-1,2,3-thiadiazol-5-yl)isoxazole-4-carboxamide [Compound 47c]
[1]; [4]
  Synergy.3µM: 45.37
[1]
  Synergy (% of control) Mean ± SD: 24 ± 0.9 % of control
[1]; [5]
  Synergy.10µM: 23.55
[2]
  effect on BNP promoter activity in cardiomyocytes (in words): increased BNP promoter activity
